Data: patent US20250295610A1, “NEUROPROTECTIVE AGENTS FOR USE IN THE TREATMENT OF OPTIC NEUROPATHIES” (The Board of Trustees of the Leland Stanford Junior …, priority 2021, published 2025)
Entries after “also recorded” stand apart in the source; their conditions may differ.

Experiments:
[1] = tested on: CHOP promoter-driven luciferase (CHOP-Luc) in HEK293T cells; test: CHOP-Luc reporter cell-based assay (HTS and retest); parameters: species or system human; conditions: Tm/Tg 1 μM; for CHOP-luciferase activity induced by ER stress (Tm/Tg): compound at 10 µM, relative to DMSO (FIG. 1d); for CHOP-luciferase activity: compound at 20 μM, 24 hours (FIG. 9e)
Experimental: ER stress reporter cell lines.
Cell-based HTS. The HTS to identify CHOP expression inhibitors was performed at the Stanford High-Throughput Bioscience Center with small molecule libraries containing 4846 total known bioactive, FDA approved drugs and clinical trial compounds; libraries included Biomol FDA, Biomol ICCB, Microsource (MS) Spectrum, Sigma LOPAC, and NIH Clinical Collection (NIH-CC). All the compounds were run in 7-point dose response based on a previous publication; except the NIH Clinical collection (446 compounds) which were tested in duplicate due to the small quantity of compounds on hand. Most of the NIH-CC was screened at 10 µM, but this varied per compound. […] We used the Pin Tool to transfer 100 nL of the compounds into 50 μL final volume. Therefore, we did a 500-fold dilution of the stock plates, which were at 10, 5, 2.5, 1.25, 0.625, 0.3125, and 0.156 mM resulting in final concentrations of 20, 10, 5, 2.5, 1.25, 0.625, and 0.3125 µM (for most of the compounds but not all). The final DMSO concentration was 0.2% for all wells. Briefly, CHOP-Luc cells were seeded in 384-well plates (Greiner Bio-One […]) at a density of 2×10^5 cells per well in 40 μL medium and cultured for 24 hours before treatment with tunicamycin (Tm)+thapsigargin (Tg) at 1 μM in 10 μL medium followed by adding 100 nL of one of the testing compounds using a Staccato SciClone ALH3000 small molecule liquid handling system (Caliper Life Sciences) and V&P Scientific 384 pin tools. AeraSeal sterile adhesive microplate seals (Excel Scientific; Victorville, CA) were used to seal plates that were incubated at 5% CO2, 37° C. for 24 hours, when luciferase activity was assayed by adding 10 μL of Bright™-Glo Luciferase reagent (Promega) to each well and detected by a Tecan Infinite M1000 Pro plate reader. Percentage of CHOP-Luc inhibition=100%−(Compound value−DMSO control value)/(Tm/Tg value−DMSO control value)×100%. The compounds achieving >30% of CHOP-Luc inhibition were considered as “hits”. Luciferase activity of all the tested compounds was determined by meta-analysis of luciferase activity in different cell lines under the control of a generic or other promoters. Any compound that appeared in more than 3 non-related luciferase screens was likely a toxic compound or luciferase inhibitor and therefore eliminated. There was no true cutoff, other than an IC50<20 µM (or the highest concentration tested).

[2] = tested on: RGC somata and axons, mouse ONC model; test: Neuroprotection in traumatic ON crush (ONC) model; format: in vivo; conditions: for neuroprotection of RGCs and ONs: mouse ONC model, traumatic ON injury; for GCC thickness by OCT: mouse ONC, intravitreal 2 μl of 2 mM once + i.p. 15 mg/kg daily, vs DMSO
Experimental: (§1) ON crush model. The ON was exposed intraorbitally while care was taken not to damage the underlying ophthalmic artery, and crushed with a jeweler's forceps (Dumont #5; Fine Science Tools, Foster City, California) for 5 seconds approximately 0.5 mm behind the eyeball. Eye ointment containing neomycin (Akorn, Somerset, New Jersey) was applied to protect the cornea after surgery. For compound treatment, each eye received intravitreal injection with 2 μl of 2 mM test compounds once and intraperitoneal (i.p.) injection daily (15 mg/kg) for 14 days after ONC.

[3] = tested on: three UPR pathways induced by ER stress (Tm/Tg) in HEK293T cells; test: UPR signaling cascades in HEK293T cells (immunoblot, RT-PCR, qPCR); format: cell-based, human; conditions: Tm/Tg 1 μM; for UPR pathways induced by ER stress: HEK293T cells, compound 10 μM; for XBP-1 mRNA splicing: RT-PCR
[4] = tested on: ONC-induced ER stress in RGCs; test: ER stress molecules in RGCs and ONs after ON crush (ONC); conditions: mouse, after traumatic ON injury, in vivo application
Experimental: Protein Preparation and Immunoblotting. Cell and tissue lysates were prepared in RIPA buffer (Themo Fisher Scientific, 89901) and supplemented with Halt Protease inhibitor cocktail (Themo Fisher Scientific, PI78437). The total protein concentration of lysates was measured by the Pierce BCA Protein Assay Kit (Thermo Fisher Scientific, 23227). 20 μg protein of each sample were denatured at 95° C. for 15 min in 100 mM DTT+1× Laemmli buffer before being separated by SDS-PAGE. We then transferred the protein samples to 0.2 μm nitrocellulose membranes (Bio-Rad, 1610097) and blocked with 5% BSA for 2 hours. Subsequently, the membranes were incubated with primary antibodies (1:1000) overnight at 4° C. After washing in TBST, these membranes were incubated with horseradish peroxidase-conjugated secondary antibodies (Cell Signaling, 7074S and 7076S, 1:1000) and visualized using a GE-A1600 imaging system. Images were quantified with ImageJ software. The primary antibodies used were PERK (Cell Signaling, 3192S), p-PERK (Cell Signaling, 3179S), eIF2a (Cell Signaling, 5324S), p-eIF2a (Cell Signaling, 3597L), ATF4 (Cell Signaling, 11815S), CHOP (Cell Signaling, 2895S), ATF6 (Cell Signaling, 65880T), IRE1a (Cell Signaling, 3294T), IRE1 (phosphor-S724) (Thermo Fisher, PA116927), phospho-SAPK/JNK (Thr183/Tyr185) (Cell Signaling, 9251S), phospho-p38 MAPK (Thr180/Tyr182) (Cell Signaling, 9215S), β-Actin (sigma, A5441), XBP-1s (Biolegend, 647502), XBP-1 (Santa Cruz, sc-8501), anti-RBPMS (Custom made at ProSci Inc).
as §1, with “ONC. […]” for “ONC.”

[5] = tested on: naïve mouse retinas and ON; conditions: one month after systemic administration
Experimental: Immunohistochemistry of whole mount and cross sections of retina. After perfusion fixation with 4% PFA in PBS, mice eyeballs and ONs were dissected out and post-fixed with 4% PFA for 2 hours at room temperature. Retinas were dissected out for whole mount retina immunostaining. For cryo-section with Leica cryostat, the eyeballs and ONs were embedded in tissue-tek OCT (Sakura) on dry ice for subsequent cryo-section. The sections were blocked with 10% goat serum (Sigma, G9023) for 2 hours before incubating with primary antibodies: RBPMS 1:4000, others 1:200 overnight at 4° C. […]
RGC counting. Whole-mount retinas were immunostained with the RBPMS antibody, 6-8 fields randomly sampled from peripheral regions of each retina using a 40× lens with a Zeiss M2 epifluorescence microscope, and RBPMS+RGCs counted by Volocity software (Quorum Technologies). The percentage of RGC survival was calculated as the ratio of surviving RGC numbers in injured eyes compared to contralateral uninjured eyes. The investigators who counted the cells were masked to the treatment of the samples.
ON semi-thin sections and quantification of surviving axons. […] Two areas of 21.4 μm×29.1 μm were cropped from the center of each image, and the surviving axons within the designated areas counted manually using ImageJ. […]

[6] = tested on: visual function, mouse SOHU glaucoma model; test: Visual function (PERG, OKR) in SOHU glaucoma model; format: in vivo; conditions: 3wpi, vs DMSO
Experimental: Control groups received the same volume of DMSO as vehicle control.
Pattern Electroretinogram (PERG) recording. After anesthetization and pupil dilation, PERG of both eyes was recorded simultaneously with the Miami PERG system (Intelligent Hearing Systems, Miami, Florida) according to manufacturer's instructions. Two consecutive recordings of 200 traces were averaged to achieve one readout; each trace recorded up to 1020 ms. The first positive peak in the waveform was designated as P1 and the second negative peak as N2. The amplitude was measured from P1 to N2.
Optokinetic Tracking Response (OKR). Mice were placed on a platform in the center of four 17-inch LCD computer monitors (Dell, Phoenix, AZ), with a video camera above the platform to capture the movement of the mouse. A rotating cylinder with vertical sine wave grating was computed and projected to the four monitors by OptoMotry software (Cere-bralMechanics Inc, Lethbridge, Alberta, Canada). […] The maximum frequency (cycle/degree) that the mouse could track was identified and recorded by investigators masked to treatment. The relative percentages of visual acuity were calculated as the ratio of maximum frequency in disease eye compared to contralateral control eye.

RGCs expressing D4ER = conditions: mouse retina explants after ONC
Experimental: Ex vivo ER Ca^2 + imaging in retina explants. ER calcium levels were measured using the Forster resonance energy transfer (FRET)-based ER targeted calcium sensor, D4ER. […] For imaging, retinas were dissected out at 3, 7 or 14dpc and plated onto laminin (Sigma, L2020) and poly-D-lysin-coated glass bottom dishes (MatTek, P35GC1.510C) and maintained in Neurobasal-A medium (ThermoFisher Scientific, 10888022) supplemented with L-glutamine (Gibco, 25030-081), penicillin/streptomycin (Gibco, 15140122) and B-27 (ThermoFisher Scientific, 0080085SA). Retina explants were imaged using a Zeiss LSM 800 microscope. ER [Ca^2 +] levels were determined by exciting D4ER at 440 nm to record the emitted light at 465-485 nm and 530-550 nm, and analyzed with ImageJ.

RGCs expressing jGCaMP7s = conditions: living mice, SLO, early and later time points after ONC
Experimental: In vivo RGC Ca^2 + imaging with SLO. The mice were intravitreally injected with AAV2-mSncg-jGCaMP7s (9×10^9 vg/retina) 4 weeks before imaging. The mice were anesthetized by xylazine and ketamine after dark adaptation for 30 minutes. Mydriasis was achieved by applying a drop of 1% tropicamide solution and a drop of 2.5% phenylephrine hydrochloride solution, which prevents pupillary contraction during recording. Right after ON crush, the mice were placed on a 3D-printed mouse holder with a 37° C. heater, and a custom-made+10D mouse contact lens (3.0 mm diameter, 1.6 mm BC, PMMA clear, Advanced Vision Technologies) attached to keep the cornea from drying. The retinal fundus was imaged by the Heidelberg Spectralis SLO/OCT system (Heidelberg Engineering, Germany) with a 55° lens using the fluorescein angiography scanning mode under the same sensitivity (sensitivity 75-85) and high-resolution (1536×1536 pixels).

[7] = mouse, 6 and 24 hours after injection
Experimental: Retinal tissues were homogenized with 100 μL of pre-chilled 20% acetonitrile and then diluted 2-fold with blank mouse plasma. An aliquot of 20 μL of diluted retina homogenate was extracted with 100 μL of methanol: acetonitrile (5:95, v: v) containing the internal standard (Verapamil). The mixture was shaken on a shaker for 15 minutes and then centrifuged at 3220 g for 15 minutes. An aliquot of 70 μL of the supernatant was mixed with 70 μL of water for the injection to the LC-MS. Calibration standards and quality control samples were prepared by spiking 2 μL of the test compound into 18 μL of blank mouse plasma, and the resulting plasma was processed with the unknown samples in the same batch. The extracts were analyzed by a Shimadzu LC-30AD interfaced to a Sciex API 5000 system. The extracts were injected onto an ACE 3 C18 column (50×2.1 mm, 3.0 μm) and separated by the gradient elution using water with 10 mM ammonium acetate (A) and acetonitrile with 0.1% formic acid (B) as mobile phases. The gradient program started at 10% B, held for 0.2 min, ramped to 95% B at 1.5 min, remained at 95% at 2.4 min, dropped to 10% B at 2.45 min, and stayed at 10% B till 3.2 min. […] The calibration curve fitted by linear regression was used to quantify the analytes in the matrix using Analyst software 1.6.2 (Sciex).

HEK293T cells = HEK293T cells expressing jGCaMP7s, Tm/Tg 1 μM
Experimental: HEK293T cells were seeded at 10% confluence the day before transfection in poly-D-lysin-coated glass bottom 35 mm dishes (MatTek, P35GC1.510C). Two hours prior to transfection, media was removed and 1 mL of FBS-free DMEM media was added to each well. We then mixed 2 μg of the jGCaMP7s plasmid in 100 μl DMEM. In a separate tube, we diluted 4 μl PolyJet™ (SignaGen Laboratories, SL100688) reagent in 100 μl with DMEM, and incubate for 10 minutes. The complete mixture of DNA and PolyJet was incubated for another 15 min before being added to the HEK293T cells. Six hours later, the media was changed to 1 ml/well culture media. The next day, cytosolic Ca^2 + was imaged in cells transiently transfected with jGCaMP7s through a Zeiss LSM 800 confocal microscope. Dynamic intracellular Ca^2 + influx in response to Tm/Tg-induced ER stress was measured every 10 seconds for 100 seconds before Tm/Tg treatment to acquire baseline fluorescence (F0) and for 400 seconds after Tm/Tg administration to acquire F1. ΔF=F1−F0. Data were analyzed with ImageJ.

[8] = tested on: XBP-1-Luc HEK293T reporter cell line (IRE1α activity and XBP-1 splicing); conditions: Tm/Tg 1 μM, 24 hours
[9] = tested on: CHO luciferase reporter cell line driven by murine CHOP promoter; conditions: different CHO luciferase reporter cell line; cited from earlier work
[10] = HEK293T, immunoblot, 10 μM, 24 hours

Compound | CHOP-luciferase activity induced by ER stress (Tm/Tg) ([1]; 24 hours) | neuroprotection of RGCs and ONs [2] | CHOP-luciferase activity [1] | UPR pathways induced by ER stress [3] | RGC ER stress [4] | GCC thickness by OCT ([2]; 14dpc) | also measured
Cn1cc(-c2ccc3c(c2)CCN3C(=O)Cc2cccc(C(F)(F)F)c2)c2c(N)ncnc21 [GSK2606414] |  |  |  |  |  |  | CHOP-luciferase activity induced by Tm/Tg, reference compounds ([1]; FIG. 1d and FIG. 9e (10 µM and 20 μM), 24 hours): significantly inhibited
O=C(COc1ccc(Cl)cc1)NC1CCC(NC(=O)COc2ccc(Cl)cc2)CC1 (stereo not drawn) [ISRIB] | no effect; also recorded: did not have a significant inhibition effect | provided neuroprotection in the ONC mouse model, to a lesser degree than maprotiline; also recorded: significant neuroprotection |  |  |  |  | 
COc1ccc2c(c1)CC[C@@H]1[C@@H]2CC[C@]2(C)[C@@H](NCCCCCCN3C(=O)C=CC3=O)CC[C@@H]12 [U-73122] |  |  |  |  |  |  | protection of RGC axons ([2]; mouse, after ONC injury, 14dpc): protected; protection of RGC somata ([2]; mouse, after ONC injury, 14dpc): protected
CN(C)CCC=C1c2ccccc2CCc2ccccc21 [amitriptyline] |  |  | inhibited |  |  |  | 
Clc1ccc2c(c1)C(N1CCNCC1)=Nc1ccccc1O2 [amoxapine] | significantly inhibited | significantly protects |  | inhibit all three UPR pathways | effectively inhibits | significantly thicker | XBP-1 mRNA splicing ([3]; HEK293T, 10 μM, 24 hours): significantly inhibited
CN(C)CCCN1c2ccccc2CCc2ccc(Cl)cc21 [clomipramine] |  |  | inhibited |  |  |  | 
CNCCCN1c2ccccc2CCc2ccccc21 [desipramine] |  |  | inhibited |  |  |  | 
Clc1ccc2c(c1)CCc1cccnc1C2=C1CCNCC1 [desloratadine] |  | significantly protects |  | inhibit all three UPR pathways | effectively inhibits | significantly thicker | JNK phosphorylation [3, 10]: significantly inhibited
CNCCCC12CCC(c3ccccc31)c1ccccc12 [maprotiline] | significantly inhibited | significantly protects |  | inhibit all three UPR pathways | effectively inhibits | significantly thicker | RGC or ON degeneration [5]: no RGC or ON degeneration; immune cell infiltration in retina and ON [5]: no immune cell infiltration; amplitude of PERG [6]: improved; visual acuity (OKR) [6]: improved; ER Ca2+ concentration of RGCs after ONC (D4ER FRET) (RGCs expressing D4ER): maintained ER Ca^2 + concentration at much higher levels; intra-RGC Ca2+ levels after ONC (RGCs expressing jGCaMP7s): significantly decreased; downstream genes of UPR at the mRNA levels (qPCR) ([3]; HEK293T, 12 hours, 10 µM): the most striking modulation; XBP-1 mRNA splicing ([3]; HEK293T, 10 μM, 24 hours): significantly inhibited; IRE1α phosphorylation [3, 10]: inhibited; JNK phosphorylation [3, 10]: significantly inhibited; maprotiline in the retina after i.p. injection (LC-MS) [7]: presence of maprotiline in the retina; Tm/Tg-induced intracellular Ca2+ influx (HEK293T cells): significantly blocked; XBP-1 splicing induced by Tm/Tg (XBP-1s-Luc) [8]: dose-dependent inhibition
CN1CCN(CCCN2c3ccccc3Sc3ccc(C(F)(F)F)cc32)CC1 [trifluoperazine] |  |  | inhibited |  |  |  | CHOP inhibitor in a previous study [9]: CHOP inhibitor
